Where “and” joins values, the source holds several entries; their conditions need not be identical. Identical values can stand only once. Like-named read-outs stand apart in the source and are kept apart here.
Assays:
h-OPRM1 (human MOR) = molecular target: T1, h-OPRM1 (human MOR) (Homo sapiens, UniProt P35372); assay type: cell-based
T1 construct: host or cells: Chinese hamster ovary (CHO) cells, cAMP Hunter cell line
Procedure: Tracking cAMP Secondary Messenger Pathway in MOR Expressing Cells (DiscoverX)
A Chinese hamster ovary cell line stably expressing non-tagged h-OPRM1 (human MOR) that signal through cAMP was used.
1. cAMP Hunter cell line expressing h-OPRM1 was expanded from freezer stocks according to standard procedures. 2. Cells were seeded in a total volume of 20 μL into white walled, 384-well microplates and incubated at 37° C. for the appropriate time prior to testing. 3. cAMP modulation was determined using the DiscoverX HitHunter cAMP XS+ assay (for further details, see below).
1. For agonist determination, cells were incubated with sample in the presence of EC80 forskolin to induce cAMP-generation and Gi agonist activity, inhibiting cAMP formation, by the test compound was assayed, as follows: 2. Media was aspirated from cells and replaced with 15 μL 2:1 HBSS/10 mM Hepes: cAMP XS+Ab reagent. 3. Intermediate dilution of sample stocks was performed to generate 4× sample in assay buffer containing 4× EC80 forskolin. An amount of 4.5 μL of 4× sample was added to cells and incubated at 37° C. or room temperature for 30 or 60 minutes. The vehicle used for all stock solutions is DMSO and its final concentration in the assay system was 1%.
1. After appropriate compound incubation, assay signal was generated through incubation with 20 μL cAMP XS+ED/CL lysis cocktail for one hour followed by incubation with 20 μL cAMP XS+EA reagent for three hours at room temperature. 2. Microplates were read following signal generation with a PerkinElmer Envision™ instrument for chemiluminescent signal detection.
1. Compound activity was analyzed using CBIS data analysis suite (ChemInnovation, CA). 2. For Gi agonist mode assays, percentage activity is calculated using the following formula: % Activity=100%×(1−(mean RLU of test sample−mean RLU of MAX control)/(mean RLU of vehicle control−mean RLU of MAX control)).
OPRM1, the μ-opioid receptor (MOR), is a GPCR with high affinity for enkephalins and beta-endorphin, but a low affinity for dynorphins. The prototypical OPRM1 agonist is morphine, the primary psychoactive alkaloid in opium. It is an inhibitory G-protein coupled receptor that activates the Gi alpha subunit, inhibiting adenylate cyclase activity, thereby lowering cAMP levels. In order to test synergy of various drug combinations, towards the human receptor (h-OPRM1), a high sensitivity and absolute selectivity assay system, developed by DiscoverX (Fremont, Calif., USA) was employed. The analytical power of this assay, described in detail below, enables unequivocal identification of agonistic or antagonistic activity of drugs towards h-OPRM1, at the biologically relevant cellular context. […] A positive control dose-response was also examined in parallel (see FIG. 6).

opioid-receptor = conditions: opioid agonist; relative to 7-hydroxymitragynine; cited from earlier work
[1] = single iv bolus dose of 0.5 mg/kg racemic ketamine; for at least 24 hrs; cited from earlier work

T1 sequence (P35372 whole entry): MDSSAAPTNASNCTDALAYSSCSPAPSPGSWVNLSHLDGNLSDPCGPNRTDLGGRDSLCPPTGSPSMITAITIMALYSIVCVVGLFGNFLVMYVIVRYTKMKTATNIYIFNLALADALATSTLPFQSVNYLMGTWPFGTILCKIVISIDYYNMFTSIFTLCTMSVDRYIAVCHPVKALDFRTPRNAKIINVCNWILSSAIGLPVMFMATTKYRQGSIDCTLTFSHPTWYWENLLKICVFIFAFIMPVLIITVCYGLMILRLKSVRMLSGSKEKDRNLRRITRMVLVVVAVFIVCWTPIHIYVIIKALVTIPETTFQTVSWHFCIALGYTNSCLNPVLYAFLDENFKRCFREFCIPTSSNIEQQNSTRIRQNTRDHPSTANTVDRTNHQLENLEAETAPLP

Compound: CN1c2ccccc2C(NCCCCCCC(=O)O)c2ccc(Cl)cc2S1(=O)=O (stereo not shown) [Tia, 7-[(3-Chloro-6-methyl-5,5-dioxo-11H-benzo[c][2,1]benzothiazepin-11-yl)amino]heptanoic acid]
- amount of the single agent that obtains the level of activity of the combination (h-OPRM1 (human MOR)): > 5 ×

Compound: N[C@@]1(c2ccccc2Cl)CCC[C@@H](O)C1=O.O=C(O)C(F)(F)F (racemic) [HNK, rac-(2r,6r)-2 amino-2-(2-chlorophenyl)-6-hydroxycyclohexan-1-one; trifluoroacetic acid, trans]
- agonistic activity of the ketamine active metabolite by itself (h-OPRM1 (human MOR)): no agonistic activity
- Agonistic activity (% of maximal c-AMP inhibition) (h-OPRM1 (human MOR); HNK 0.08 nM by itself, Table 2/5 series): 0% and 3.1%
- Agonistic activity (% of maximal c-AMP inhibition) (h-OPRM1 (human MOR); HNK 0.4 nM by itself, Table 2/5 series): 0% and 7.6%
- Agonistic activity (% of maximal c-AMP inhibition) (h-OPRM1 (human MOR); HNK 2 nM by itself, Table 2/5 series): 0%
- Agonistic activity (% of maximal c-AMP inhibition) (h-OPRM1 (human MOR); HNK 10 nM by itself, Table 2/5 series): 0%
- Agonistic activity (% of maximal c-AMP inhibition) (h-OPRM1 (human MOR); HNK 50 nM by itself, Table 1 series): 1.3%
- Agonistic activity (% of maximal c-AMP inhibition) (h-OPRM1 (human MOR); HNK 50 nM by itself, Table 2/5 series): 0% and 6.7%
- Agonistic activity (% of maximal c-AMP inhibition) (h-OPRM1 (human MOR); HNK 300 nM by itself, Table 1 series): 10.3%
- Agonistic activity (% of maximal c-AMP inhibition) (h-OPRM1 (human MOR); HNK 1,800 nM by itself, Table 1 series): −3.4%
- Agonistic activity (% of maximal c-AMP inhibition) (h-OPRM1 (human MOR); HNK 11,000 nM by itself, Table 1 series): −8.6%

Compound: 10-fluoro ethylene glycol adduct of 7-hydroxymitragynine
- potency higher than 7-hydroxymitragynine (opioid-receptor): 4 fold

Compound: CNC1(c2ccccc2Cl)CCCCC1=O (racemic) [Ketamine, (RS)-2-(2-Chlorophenyl)-2-(methylamino)cyclohexanone]
- HNK serum concentrations [1]: about 30 nM
